In US9023821B2, “Use of MicroRNA for treating diseases associated with a dysfunction of the cilia in multiciliated epithelial cells” (Centre National de la Recherche Scientifique, priority 2009, dated 2015):

Experiments:
[1] = test system: human airway epithelial cells (HAECs); assay: Agilent miRNA chips, miRNA expression at four stages of differentiation of HAECs; details: for Modulation (ratio of the level of intensity of expression in log2 in two stages of differentiation) measured with the Agilent chips, D7 − D0 / Modulation (ratio of the level of intensity of expression in log2 in two stages of differentiation) measured with the Agilent chips, FC − D7 / Modulation (ratio of the level of intensity of expression in log2 in two stages of differentiation) measured with the Agilent chips, WD − D0 / Modulation (ratio of the level of intensity of expression in log2 in two stages of differentiation) measured with the Agilent chips, WD − FC / Level of intensity of expression in log2 measured with the Agilent chips, D0 / Level of intensity of expression in log2 measured with the Agilent chips, D7 / Level of intensity of expression in log2 measured with the Agilent chips, FC / Level of intensity of expression in log2 measured with the Agilent chips, WD: Table VI; for Level of intensity of expression in log2 measured with the Agilent chips, D0: stage D0; for Level of intensity of expression in log2 measured with the Agilent chips, D7: stage D7; for Level of intensity of expression in log2 measured with the Agilent chips, FC: stage FC; for Level of intensity of expression in log2 measured with the Agilent chips, WD: stage WD
In short: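 RNA from the same patients' HAECs at four differentiation stages was labelled and hybridized with the Agilent miRNA labeling and hybridization kit. Chips were Human miRNA Microarray v2, with 866 human and 89 viral miRNAs (miRBase v12.0). Profiles were compared with high-throughput sequencing data.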

[2] = test system: basal cells and pyramidal cells of the airway epithelium; assay: miRNA expression in sorted basal cells versus pyramidal cells (ciliated + secretory), HTS and Agilent chips; design: species or system human; details: for Modulation of expression of the miRNAs in pyramidal cells (323(−)) relative to basal cells 323(+): HTS and Agilent chips; for Intensity of the level of expression in log2 in pyramidal cells (323(−)): pyramidal cells (ciliated + secretory)
In short: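 Read-out is miRNA profiling of total RNA, by Agilent chips or by high-throughput sequencing, in two sorted populations. These were basal cells (CD151+/TF+) and pyramidal ciliated/secretory cells (CD151−/TF−) from airway epithelium of 3 donors.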

[3] = test system: human airway epithelial cells (HAECs); assay: High-throughput sequencing (HTS) of miRNAs at four stages of differentiation of HAECs; details: for Modulation (ratio of the level of intensity of expression in log2 in two stages of differentiation) measured by high-throughput sequencing, D7 − D0 / Modulation (ratio of the level of intensity of expression in log2 in two stages of differentiation) measured by high-throughput sequencing, FC − D7 / Modulation (ratio of the level of intensity of expression in log2 in two stages of differentiation) measured by high-throughput sequencing, WD − D0 / Modulation (ratio of the level of intensity of expression in log2 in two stages of differentiation) measured by high-throughput sequencing, WD − FC / Level of intensity of expression in log2 measured by high-throughput sequencing, D0 / Level of intensity of expression in log2 measured by high-throughput sequencing, D7 / Level of intensity of expression in log2 measured by high-throughput sequencing, FC / Level of intensity of expression in log2 measured by high-throughput sequencing, WD: Table VI; for Modulation (ratio of the level of intensity of expression in log2 in two stages of differentiation), D7 − D0 / Modulation (ratio of the level of intensity of expression in log2 in two stages of differentiation), FC − D7 / Modulation (ratio of the level of intensity of expression in log2 in two stages of differentiation), WD − FC / Abundance (%), D0 / Abundance (%), D7 / Abundance (%), FC / Abundance (%), WD: HTS; for Abundance (%), D0: ALI-D0; for Abundance (%), D7: ALI-D7; for Abundance (%), FC: ALI-FC; for Abundance (%), WD: ALI-WD; for Level of intensity of expression in log2 At the differentiated stage (WD) measured in HTS: healthy human airway epithelial tissue; for Level of intensity of expression in log2 measured by high-throughput sequencing, D0: stage D0; for Level of intensity of expression in log2 measured by high-throughput sequencing, D7: stage D7; for Level of intensity of expression in log2 measured by high-throughput sequencing, FC: stage FC; for Level of intensity of expression in log2 At the differentiated stage (WD) measured in HTS / Level of intensity of expression in log2 measured by high-throughput sequencing, WD: stage WD
In short: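 Cells at four air-liquid interface differentiation stages were lysed and total RNA with miRNAs purified. Adaptor Mix A or B ligation (16° C, 2-16 h) allowed 5′ or 3′ end sequencing. Abundance cut-off was 1% of total miRNAs in at least one stage.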

| Substance | Modulation (ratio of the level of intensity of expression in log2 in two stages of differentiation) measured with the Agilent chips, D7 − D0 [1] | Modulation (ratio of the level of intensity of expression in log2 in two stages of differentiation) measured with the Agilent chips, FC − D7 ([1]; FC − D7) | Modulation (ratio of the level of intensity of expression in log2 in two stages of differentiation) measured with the Agilent chips, WD − D0 [1] | Modulation (ratio of the level of intensity of expression in log2 in two stages of differentiation) measured with the Agilent chips, WD − FC ([1]; WD − FC) | Level of intensity of expression in log2 measured with the Agilent chips, D0 [1] | Level of intensity of expression in log2 measured with the Agilent chips, D7 [1] | Level of intensity of expression in log2 measured with the Agilent chips, FC [1] | Level of intensity of expression in log2 measured with the Agilent chips, WD [1] | Modulation of expression of the miRNAs in pyramidal cells (323(−)) relative to basal cells 323(+) [2] | Intensity of the level of expression in log2 in basal cells (323(+)) [2] | Intensity of the level of expression in log2 in pyramidal cells (323(−)) [2] | Modulation (ratio of the level of intensity of expression in log2 in two stages of differentiation) measured by high-throughput sequencing, D7 − D0 [3] | Modulation (ratio of the level of intensity of expression in log2 in two stages of differentiation) measured by high-throughput sequencing, FC − D7 [3] | Modulation (ratio of the level of intensity of expression in log2 in two stages of differentiation), D7 − D0 [3] | Modulation (ratio of the level of intensity of expression in log2 in two stages of differentiation), FC − D7 [3] | Modulation (ratio of the level of intensity of expression in log2 in two stages of differentiation), WD − FC [3] | Abundance (%), D0 [3] | Abundance (%), D7 [3] | Abundance (%), FC [3] | Abundance (%), WD [3] | also measured |
| --- | --- | --- | --- | --- | --- | --- | --- | --- | --- | --- | --- | --- | --- | --- | --- | --- | --- | --- | --- | --- | --- |
| hsa-miR-191: human miRNA, SEQ ID No. 13 (CAACGGAAUCCCAAAAGCAGCUG; expressed or natural sequence; listed as Homo sapiens) | 2.32 log2 | 0.29 log2 | 2.31 log2 | −0.30 log2 | 0.64 log2 | 2.97 log2 | 3.25 log2 | 2.95 log2 | 0.00 | 0.14 log2 | 0.14 log2 | 0.90 log2 | 0.84 log2 | 0.90 log2 | 0.84 log2 | 0.42 log2 | 5.71% | 10.68% | 18.46% | 18.69% | Modulation (ratio of the level of intensity of expression in log2 in two stages of differentiation) measured by high-throughput sequencing, WD − D0 [3]: 2.15 log2; Modulation (ratio of the level of intensity of expression in log2 in two stages of differentiation) measured by high-throughput sequencing, WD − FC [3]: 0.42 log2; Level of intensity of expression in log2 At the differentiated stage (WD) measured in HTS [3]: 16.82 log2; Level of intensity of expression in log2 measured by high-throughput sequencing, D0 [3]: 14.67 log2; Level of intensity of expression in log2 measured by high-throughput sequencing, D7 [3]: 15.57 log2; Level of intensity of expression in log2 measured by high-throughput sequencing, FC [3]: 16.40 log2; Level of intensity of expression in log2 measured by high-throughput sequencing, WD [3]: 16.82 log2 |
| hsa-miR-29a: human miRNA, SEQ ID No. 31 (UAGCACCAUCUGAAAUCGGUUA; expressed or natural sequence; listed as Homo sapiens) | 0.17 log2 | −0.71 log2 | −0.38 log2 | 0.16 log2 | 11.23 log2 | 11.40 log2 | 10.69 log2 | 10.85 log2 | −2.95 | 11.09 log2 | 8.14 log2 | −1.34 log2 | −0.11 log2 | −1.34 log2 | −0.11 log2 | 0.02 log2 | 17.01% | 6.72% | 6.02% | 4.64% | Modulation (ratio of the level of intensity of expression in log2 in two stages of differentiation) measured by high-throughput sequencing, WD − D0 [3]: −1.43 log2; Modulation (ratio of the level of intensity of expression in log2 in two stages of differentiation) measured by high-throughput sequencing, WD − FC [3]: 0.02 log2; Level of intensity of expression in log2 At the differentiated stage (WD) measured in HTS [3]: 14.53 log2; Level of intensity of expression in log2 measured by high-throughput sequencing, D0 [3]: 16.24 log2; Level of intensity of expression in log2 measured by high-throughput sequencing, D7 [3]: 14.90 log2; Level of intensity of expression in log2 measured by high-throughput sequencing, FC [3]: 14.79 log2; Level of intensity of expression in log2 measured by high-throughput sequencing, WD [3]: 14.81 log2 |
| hsa-miR-449a: human miRNA, SEQ ID No. 46 (UGGCAGUGUAUUGUUAGCUGGU; expressed or natural sequence; listed as Homo sapiens) | 6.53 log2 | 5.70 log2 | 12.08 log2 | −0.15 log2 | 1.47 log2 | 8.00 log2 | 13.70 log2 | 13.54 log2 | 6.07 | 2.81 log2 | 8.88 log2 | 5.21 log2 | 5.21 log2 | 5.21 log2 | 5.21 log2 | 0.21 log2 | 0.00% | 0.18% | 6.49% | 5.70% | Modulation (ratio of the level of intensity of expression in log2 at two stages of differentiation), FC − D7 ([1]; FC − D7, Agilent miRNA chips, Table V): 5.70 log2; Modulation (ratio of the level of intensity of expression in log2 at two stages of differentiation), WD − FC ([1]; WD − FC, Agilent miRNA chips, Table V): −0.15 log2; Modulation (ratio of the level of intensity of expression in log2 in two stages of differentiation) measured by high-throughput sequencing, WD − D0 [3]: 10.63 log2; Modulation (ratio of the level of intensity of expression in log2 in two stages of differentiation) measured by high-throughput sequencing, WD − FC [3]: 0.21 log2; Level of intensity of expression in log2 At the differentiated stage (WD) measured in HTS [3]: 12.24 log2; Level of intensity of expression in log2 measured by high-throughput sequencing, D0 [3]: 4.48 log2; Level of intensity of expression in log2 measured by high-throughput sequencing, D7 [3]: 9.69 log2; Level of intensity of expression in log2 measured by high-throughput sequencing, FC [3]: 14.90 log2; Level of intensity of expression in log2 measured by high-throughput sequencing, WD [3]: 15.11 log2 |
